From article PMC10801772 (The Journal of Pharmacology and Experimental Therapeutics, 2024)
Values joined by “and” are separate entries in the source; they are usually repeats but may differ in a detail not shown here. Identical values can stand only once. Like-named read-outs stand apart in the source and are kept apart here.

Key:
[1] = system: mice at terminal stages of botulism (2.2x LD50 BoNT/A, i.v.); conditions: mouse, in vivo
[2] = cited from earlier work; for Brain penetration: in vivo
[3] = system: mice at terminal stages of botulism (2.2x LD50 BoNT/A, i.v.); conditions: mouse, in vivo; remark: listed apart in the source
healthy mice = conditions: mouse, in vivo
[4] = mouse, in vivo, sc, 2 mg/kg; cited from earlier work
[5] = system: animal models of botulism; conditions: in vivo; cited from earlier work
patients with LEMS = conditions: human, in vivo; cited from earlier work
[6] = in vivo, po; cited from earlier work

## [2H]c1nc([2H])c(N)c(N)c1[2H] [3,4-DAP-d3, 3,4-diaminopyridine-d3]
[1]
  Relative effects on TV versus RR: more potent effects on TV
[2]; not told
  CNS permeability / brain penetration: low central nervous system (CNS) permeability

## Nc1ccncc1N [3,4-DAP, 3,4-diaminopyridine]
[1]
  Effect on ventilatory parameters (TV, RR, MV, mid-expiratory flow, peak inspiratory flow, peak expiratory flow, expired volume, enhanced pause): significantly improved
  Lowest dose to produce an unambiguous peak response in MV: 0.25 mg/kg
  Relative effects on TV versus RR: more potent effects on TV
  Time after treatment at which MV significantly improved: 10 min
  Time after treatment to maximum effect on MV: 25 to 30 min
  Time after which ventilatory parameters began to decline: approximately 30 minutes
  Time up to which all ventilatory parameters remained significantly improved compared with vehicle: 90 min
[1]; sc
  Doses that increased both ventilatory parameters and respiration: ≥ 0.25 mg/kg
[3]
  Blood gas levels: did not improve
  Lactate: did not show any significant improvement
  Time to improvement in blood gas levels: 45 min and < 30 min
  Time to reversal of respiratory acidosis (pCO2, HCO3-, pH, lactate): ≤ 30 minutes
  pCO2, pH and HCO3-: improved
[3]; sc
  Effect on pO2 levels: Neither intoxication nor 3,4-DAP treatment had an effect on pO2 levels
Healthy mice
  Effect on MV: no changes in MV
  Effect on RR: significantly increased RR
  Effect on TV: concomitant reductions in TV
[4]
  Maximum blood levels: 840 ng/mL
[5]
  Exposure required for reversal of botulism symptoms: 125 ng/mL
Patients with LEMS
  Exposure needed for typical patients with LEMS: 32 ng/mL

## Nc1ccncc1 [4-AP, 4-aminopyridine]
[1]
  Relative effects on TV versus RR: increased TV and RR by roughly equal proportions
Healthy mice
  Effect on MV: no changes in MV
  Effect on RR: significantly increased RR
  Effect on TV: concomitant reductions in TV
[2]; not told
  Blood brain barrier permeability relative to 3,4-DAP: approximately sixfold greater

## Nc1ccncc1N [amifampridine]
[6]
  Maximum blood levels: 38.6 ± 9.2 ng/mL

## Nc1ccncc1F [3F-4AP, 4-amino-3-fluoropyridine]
[1]
  Relative effects on TV versus RR: more potent effects on RR
  Symptomatic benefits compared with the other effective aminopyridines: modest and short in duration
[2]; not told
  CNS permeability: CNS-permeable

## Nc1c(F)cncc1F [3,5DF-4AP, 4-amino-3,5-difluoropyridine]
[1]
  Effects on ventilatory parameters (MV, TV, RR): indistinguishable from vehicle

## Nc1ccnc(N)c1 [2,4-DAP, 2,4-diaminopyridine]
[1]
  Relative effects on TV versus RR: increased TV and RR by roughly equal proportions
[2]
  Brain penetration: poor brain penetration

## Nc1ccnc(F)c1 [2F-4AP, 4-amino-2-fluoropyridine]
[1]
  Effects on ventilatory parameters (MV, TV, RR): indistinguishable from vehicle

## [2H]c1nc([2H])c([2H])c(N)c1[2H] [4-AP-d4, 4-aminopyridine-d4]
[1]
  Relative effects on TV versus RR: increased TV and RR by roughly equal proportions

## Nc1cncc(N)c1N [3,4,5-TAP, 3,4,5-triaminopyridine]
[1]
  Relative effects on TV versus RR: increased TV and RR by roughly equal proportions
[2]
  Brain penetration: poor brain penetration
